Results published in patent publication US20220047698A1, “SYNTHETIC INNATE IMMUNE RECEPTOR LIGANDS AND USES THEREOF” (ALBERTA RESEARCH CHEMICALS INC., priority 2018, published 2022).

Tested on: BALB/c mice
Assay: Mouse immunization with OVA plus adjuvant combinations, serum IgG1 / IgG2a
Assay type: in vivo
Conditions: mice vaccinated with OVA and adjuvant combinations, subcutaneous, booster Day 21; for serum IgG1: FIG. 2; for serum IgG2a: FIG. 3
Experimental: Ability of compounds as vaccine adjuvants are assessed through their ability to induce robust immune responses in mice when administered along with a standard experimental antigen, OVA peptide, and compared the balance of Th1 and Th2 responses from their IgG1a and IgG2a responses as well as the cytokine production in mice. It is very common to see the antibody responses to many adjuvants but it is important to see the cellular responses as well which are used as therapeutic vaccines such as cancer vaccines.
Mouse Immunization: Groups of BALB/c mice were immunized with vaccine formulations wherein OVA (50 μg/dose) is combined with PZ (10 μg/dose), PIC (10 μg/dose), and adjuvant alone or in combination (20 μg/dose). In Trial 1, mice (n=8 per group) were immunized subcutaneously with 100 μl total volume with OVA alone, OVA+PZ/PI/52, OVA+52, or saline. In Trial 2, mice (n=8 per group) were immunized subcutaneously with 200 μl total volume with OVA alone, OVA+52, OVA+PZ+PIC, OVA+52+PZ+PI, OVA+(63+97) nanoparticles, or OVA+(52+63+97)nanoparticles, where the number refers to the compound number. The volume was doubled in Trial 2 because the (63+97)Np's were viscous and required more buffer to be easily injected. Mice received a booster immunization on Day 21. Blood was obtained on day 21, day 35 for both trials and 48 for trial 1 only. Mice were euthanized with isofluorane on Day 35 in Trial 2 and Day 48 in Trial 1. Spleens were isolated on day of euthanization.

`CSCC[C@H](NC=O)C(=O)N[C@@H](CC(C)C)C(=O)N[C@@H](Cc1ccccc1)C(=O)NCCNC(=O)[C@H](CCCCN)NC(=O)[C@H](CCCCN)NC(=O)[C@H](CCCCN)NC(=O)[C@H](CO)NC(=O)[C@H](CSCC(COC(=O)CCCCCCCCCCCC(C)C)OC(=O)CCCCCCCCCCCC(C)C)NC(=O)CCCCCCCCCCCC(C)C.Cl.Cl.Cl` (stereo partly drawn) [Compound 52, TrilipoCys-Ser-Lys-Lys-Lys-NH—CH2-CH2-NH-F-L-Mf] was tested, and the “serum IgG1” value was “significant increased production” and the “serum IgG2a” value was “significant increased production”.

For `CC(=O)N[C@@H]1[C@@H](O[C@H](C)C(=O)N[C@@H](C)C(=O)N[C@@H](CCC(=O)O)C(N)=O)[C@H](O)[C@@H](COC(=O)CCCCCCCCCCCC(C)C)O[C@H]1O` [Compound 63, (S)-4-((S)-2-((R)-2-(((2R,3R,4R,5S,6R)-3-acetamido-2,5-dihydroxy-6-(((13-methyltetradecanoyl)oxy)methyl)tetrahydro-2H-pyran-4-yl)oxy)propanamido)propanamido)-5-amino-5-oxopentanoic acid], the “serum IgG1” value was “significant increased production” and the “serum IgG2a” value was “significant increased production”.
